Experimental data from patent publication US11590117B2, “Treatment of a hematologic malignancy with 2-(4-chlorophenyl)-n-((2-(2,6-dioxopiperidin-3-yl)-1-oxoisoindolin-5-yl)methyl)-2,2-difluoroacetamide” (priority 2016, dated 2023).
Read-outs that look alike come from different tables or passages of the source.

What was measured:
Assay in all cases: CellTiter-Glo (CTG) cell proliferation assay, 72 hours
Karpas 299 = assay type: cell-based; settings: Homo sapiens, Anaplastic Large Cell Lymphoma
Method: (§1) Preparation of Solutions of Test Article: Compounds were plated into black 384-well plates (Corning Inc.) to a final DMSO volume of 0.1% assuming a maximal volume of 50 μL. A 10-point dose response starting at 10 μM with a 1:3 dilution was printed in duplicate by acoustic dispense using the EDC ATS-100 platform.
(§2) Cell Proliferation Assays: The effect of Compound 1 on the proliferation/viability of the hematological cell lines (Table 1 Table, Table 2 and Table 3), THLE-2, or PBMCs was assessed after 72 hours incubation using CTG (Promega), according to manufacturer's instructions. Hematological cell lines were dispensed into compound plates by a Multidrop™ Combi Reagent Dispenser (Thermo Scientific, Waltham, Mass.) at a concentration of 0.1 to 0.3×10^6 cells per mL in a 50 μL total volume. THLE-2 cells were seeded out at 1000 cells per well in 50 μL volume and incubated for 72 hours. At 72 hours, 25 μL per well of CTG was dispensed by a Multidrop™ Combi Reagent Dispenser and adenosine triphosphate (ATP) release by viable cells was measured as relative luminescence units after 30 minutes using the Envision platform.

Daudi = assay type: cell-based; settings: Homo sapiens, Burkitt Lymphoma
Method: as §1, §2

MC-116 = assay type: cell-based; settings: Homo sapiens, MC116, Acute Lymphoblastic Leukemia
Method: as §1, §2

Ramos = assay type: cell-based; settings: Homo sapiens, Burkitt Lymphoma
Method: as §1, §2

BL-41 = assay type: cell-based; settings: Homo sapiens, Burkitt Lymphoma
Method: as §1, §2

BL-70 = assay type: cell-based; settings: Homo sapiens, Burkitt Lymphoma
Method: as §1, §2

Kasumi-1 = assay type: cell-based, human
Method: as §1, §2
(§3) Proliferation was assessed using the CellTitre-Glo® assay. Results for cultures incubated with Compound 1 were normalized to results for control cultures for each cell line. The IC50 for inhibition of cell growth by Compound 1 was determined for each cell line using ActivityBase software.
(§4) Cultures of 11 different AML cell lines were incubated 72 hours with Compound 1 at concentrations of 0.5 nM to 10 μM. Proliferation was assessed using the CellTitre-Glo® assay. Results for cultures incubated with Compound 1 were normalized to results for control cultures for each cell line. Inhibition of cell growth was also determined in THLE-2 cells at Compound 1 concentrations of 0.1 nM to 100 μM and in PBMCs at Compound 1 concentrations of 0.5 nM to […]. The Compound 1 therapeutic window was calculated using area under the curve (AUC; Activity Area [Barretina et al, Nature (2012) 483603-607] measurements (in arbitrary units) as determined using GraphPad Prism software for plots of cell proliferation vs concentration and dividing the AUC for the immortalized (but nontumorigenic) human THLE-2 hepatocyte cell line or PBMCs by the AUC for the AML cell line.

KG-1 = assay type: cell-based, human
Method: as §1, §2, §3, §4

OCI-AML2 = assay type: cell-based, human
Method: as §1, §2, §3, §4

KG-1a = assay type: cell-based, human
Method: as §1, §2, §3, §4

HNT-34 = assay type: cell-based, human; settings: for IC50: Homo sapiens
Method: as §1, §2, §3, §4

HL-60 = assay type: cell-based, human
Method: as §1, §2, §3, §4

OCI-AML3 = assay type: cell-based, human; settings: for IC50: liquid culture
Method: as §1, §2, §3, §4

MV-4-11 = assay type: cell-based, human
Method: as §1, §2, §3, §4

U-937 = assay type: cell-based, human
Method: as §1, §2, §3, §4

NB-4 = assay type: cell-based, human
Method: as §1, §2, §3, §4

[1] = Kasumi-1, AUC PBMCs divided by AUC AML cell line
[2] = Kasumi-1, AUC THLE-2 divided by AUC AML cell line
[3] = KG-1, AUC PBMCs divided by AUC AML cell line
[4] = KG-1, AUC THLE-2 divided by AUC AML cell line
[5] = OCI-AML2, AUC PBMCs divided by AUC AML cell line
[6] = OCI-AML2, AUC THLE-2 divided by AUC AML cell line
[7] = AUC PBMCs divided by AUC AML cell line
[8] = AUC THLE-2 divided by AUC AML cell line
[9] = HNT-34, AUC PBMCs divided by AUC AML cell line
[10] = HNT-34, AUC THLE-2 divided by AUC AML cell line
[11] = HL-60, AUC PBMCs divided by AUC AML cell line
[12] = HL-60, AUC THLE-2 divided by AUC AML cell line
[13] = OCI-AML3, AUC PBMCs divided by AUC AML cell line
[14] = OCI-AML3, AUC THLE-2 divided by AUC AML cell line
[15] = MV-4-11, AUC PBMCs divided by AUC AML cell line
[16] = MV-4-11, AUC THLE-2 divided by AUC AML cell line
[17] = U-937, AUC PBMCs divided by AUC AML cell line
[18] = U-937, AUC THLE-2 divided by AUC AML cell line
[19] = NB-4, AUC PBMCs divided by AUC AML cell line
[20] = NB-4, AUC THLE-2 divided by AUC AML cell line

`O=C1CCC(N2Cc3cc(CNC(=O)C(F)(F)c4ccc(Cl)cc4)ccc3C2=O)C(=O)N1` (centres unmarked) [Compound 1, 2-(4-chlorophenyl)-N-((2-(2,6-dioxopiperidin-3-yl)-1-oxoisoindolin-5-yl)methyl)-2,2-difluoroacetamide] was tested, and the IC50 (Karpas 299) was over 10 µM, the IC50 (Daudi) was 393 nM and the IC50 (MC-116) was over 10 µM. For the same compound, the IC50 (Ramos) was over 10 µM, the IC50 (BL-41) was over 10 µM and the IC50 (BL-70) was 347 nM. For the same compound, the IC50 (Kasumi-1; Homo sapiens, Kasumi 1, 72 h, read-out: Proliferation IC50 (mean ± SD)) was 21 ± 13 nM, the “Therapeutic Window Method 1 As Compared with PBMCs” value (Kasumi-1; [1]) was 6.6 and the “Therapeutic Window Method 2 As Compared with PBMCs” value (Kasumi-1; [1]) was 3.8. For the same compound, the “Therapeutic Window Method 1 As Compared with THLE-2 Cells” value (Kasumi-1; [2]) was 10, the “Therapeutic Window Method 2 As Compared with THLE-2 Cells” value (Kasumi-1; [2]) was 14.5 and the AUC (Kasumi-1; Kasumi-1, Activity Area of proliferation vs concentration, 72 hours, 0.5 nM to 10 μM) was 37.9 arbitrary units. The IC50 (KG-1; Homo sapiens, KG-1, 72 h, read-out: Proliferation IC50 (mean ± SD)) was 15 ± 6 nM, the “Therapeutic Window Method 1 As Compared with PBMCs” value (KG-1; [3]) was 3.8 and the “Therapeutic Window Method 2 As Compared with PBMCs” value (KG-1; [3]) was 2.2. For the same compound, the “Therapeutic Window Method 1 As Compared with THLE-2 Cells” value (KG-1; [4]) was 6.0, the “Therapeutic Window Method 2 As Compared with THLE-2 Cells” value (KG-1; [4]) was 8.3 and the AUC (KG-1; KG-1, Activity Area of proliferation vs concentration, 72 hours, 0.5 nM to 10 μM) was 65.8 arbitrary units. The IC50 (OCI-AML2; Homo sapiens, OCI-AML2, 72 h, read-out: Proliferation IC50 (mean ± SD)) was 57 ± 21 nM, the “Therapeutic Window Method 1 As Compared with PBMCs” value (OCI-AML2; [5]) was 14 and the “Therapeutic Window Method 2 As Compared with PBMCs” value (OCI-AML2; [5]) was 8.1. The “Therapeutic Window Method 1 As Compared with THLE-2 Cells” value (OCI-AML2; [6]) was 22, the “Therapeutic Window Method 2 As Compared with THLE-2 Cells” value (OCI-AML2; [6]) was 30.7 and the AUC (OCI-AML2; OCI-AML2, Activity Area of proliferation vs concentration, 72 hours, 0.5 nM to 10 μM) was 17.9 arbitrary units. For the same compound, the “Therapeutic Window Method 1 As Compared with PBMCs” value (KG-1a; [7]) was 2.6, the “Therapeutic Window Method 2 As Compared with PBMCs” value (KG-1a; [7]) was 1.5 and the “Therapeutic Window Method 1 As Compared with THLE-2 Cells” value (KG-1a; [8]) was 4.1. For the same compound, the “Therapeutic Window Method 2 As Compared with THLE-2 Cells” value (KG-1a; [8]) was 5.7, the AUC (KG-1a; Activity Area of proliferation vs concentration, 72 hours, 0.5 nM to 10 μM) was 96.9 arbitrary units and the IC50 (KG-1a; Homo sapiens, 72 h, read-out: Proliferation IC50 (mean ± SD)) was 21 ± 10 nM. For the same compound, the “Therapeutic Window Method 1 As Compared with PBMCs” value (HNT-34; [9]) was 36, the “Therapeutic Window Method 2 As Compared with PBMCs” value (HNT-34; [9]) was 21 and the “Therapeutic Window Method 1 As Compared with THLE-2 Cells” value (HNT-34; [10]) was 57. The “Therapeutic Window Method 2 As Compared with THLE-2 Cells” value (HNT-34; [10]) was 79.5, the AUC (HNT-34; HNT-34, Activity Area of proliferation vs concentration, 72 hours, 0.5 nM to 10 μM) was 6.9 arbitrary units and the IC50 (HNT-34; HNT-34, 72 h, read-out: Proliferation IC50 (mean ± SD)) was 3 ± 1 nM. The IC50 (HNT-34; HNT-34 as sensitive positive control cell line in PBMC comparison, 72 hours, read-out: CTG IC50) was 2 nM, the “Therapeutic Window Method 1 As Compared with PBMCs” value (HL-60; [11]) was 11 and the “Therapeutic Window Method 2 As Compared with PBMCs” value (HL-60; [11]) was 6.1. For the same compound, the “Therapeutic Window Method 1 As Compared with THLE-2 Cells” value (HL-60; [12]) was 17, the “Therapeutic Window Method 2 As Compared with THLE-2 Cells” value (HL-60; [12]) was 23.2 and the AUC (HL-60; HL-60, Activity Area of proliferation vs concentration, 72 hours, 0.5 nM to 10 μM) was 23.7 arbitrary units. The IC50 (HL-60; Homo sapiens, HL-60, 72 h, read-out: Proliferation IC50 (mean ± SD)) was 20 ± 10 nM, the IC50 (OCI-AML3; Homo sapiens, OCI-AML-3, 72 h, read-out: Proliferation IC50 (mean ± SD), OCI-AML3, 72 hours) was 3 µM and the “Therapeutic Window Method 1 As Compared with PBMCs” value (OCI-AML3; [13]) was 0.45. For the same compound, the “Therapeutic Window Method 2 As Compared with PBMCs” value (OCI-AML3; [13]) was 0.3, the “Therapeutic Window Method 1 As Compared with THLE-2 Cells” value (OCI-AML3; [14]) was 0.70 and the “Therapeutic Window Method 2 As Compared with THLE-2 Cells” value (OCI-AML3; [14]) was 1.0. The AUC (OCI-AML3; OCI-AML3, Activity Area of proliferation vs concentration, 72 hours, 0.5 nM to 10 μM) was 563.0 arbitrary units, the IC50 (OCI-AML3; read-out: Proliferation IC50 (mean ± SD), OCI-AML3, 72 hours) was 3.4 ± 3.33 µM and the IC50 (MV-4-11; Homo sapiens, MV4-11, 72 h, read-out: Proliferation IC50 (mean ± SD)) was 29 ± 10 nM. The “Therapeutic Window Method 1 As Compared with PBMCs” value (MV-4-11; [15]) was 12, the “Therapeutic Window Method 2 As Compared with PBMCs” value (MV-4-11; [15]) was 7.1 and the “Therapeutic Window Method 1 As Compared with THLE-2 Cells” value (MV-4-11; [16]) was 19. For the same compound, the “Therapeutic Window Method 2 As Compared with THLE-2 Cells” value (MV-4-11; [16]) was 26.8, the AUC (MV-4-11; MV-4-11, Activity Area of proliferation vs concentration, 72 hours, 0.5 nM to 10 μM) was 20.5 arbitrary units and the IC50 (U-937; Homo sapiens, U-937, 72 h, read-out: Proliferation IC50 (mean ± SD)) was 74 ± 25 nM. For the same compound, the “Therapeutic Window Method 1 As Compared with PBMCs” value (U-937; [17]) was 6.3, the “Therapeutic Window Method 2 As Compared with PBMCs” value (U-937; [17]) was 3.6 and the “Therapeutic Window Method 1 As Compared with THLE-2 Cells” value (U-937; [18]) was 9.8. The “Therapeutic Window Method 2 As Compared with THLE-2 Cells” value (U-937; [18]) was 13.7, the AUC (U-937; U-937, Activity Area of proliferation vs concentration, 72 hours, 0.5 nM to 10 μM) was 40.0 arbitrary units and the IC50 (NB-4; Homo sapiens, NB-4, 72 h, read-out: Proliferation IC50 (mean ± SD)) was 17 ± 5 nM. The “Therapeutic Window Method 1 As Compared with PBMCs” value (NB-4; [19]) was 17, the “Therapeutic Window Method 2 As Compared with PBMCs” value (NB-4; [19]) was 10.1 and the “Therapeutic Window Method 1 As Compared with THLE-2 Cells” value (NB-4; [20]) was 27. The “Therapeutic Window Method 2 As Compared with THLE-2 Cells” value (NB-4; [20]) was 38.1 and the AUC (NB-4; NB-4, Activity Area of proliferation vs concentration, 72 hours, 0.5 nM to 10 μM) was 14.4 arbitrary units.
